These results are taken from patent US10960007B2, “Pharmacologically active aryl-substituted pyrazolo[1,5-a]pyrimidine derivatives” (RICHTER GEDEON NYRT., priority 2017, dated 2021).

Data set [1] deals with adult rats. Nature of the data set: Foot shock-induced ultrasonic vocalization (USV) in adult rats. To be noted: Rattus norvegicus, po; 10 mg/kg per os, 1 h before shocking, male Wistar rats. The format is in vivo, rat. Here is the method: Foot Shock-Induced Ultrasonic Vocalization (USV) in Adult Rats
(§1) Under stressful conditions, adult rats emit 22 kHz ultrasounds that can be reduced by various pharmacological treatments (De Vry et al, Eur. J. Pharmacol. 1993, 249, 331-339; Sanchez, Eur. J. Pharmacol. 2003, 463, 133-143). […] Therefore, a foot shock-induced vocalization paradigm in adult rats was used to assess in vivo efficacy of centrally acting GABAB receptor ligands. Behavioral measurements were carried out on male Wistar rats (200-250 g, Toxicoop, Hungary). Rats were housed in groups of four in plastic cages with a wire grid top in a temperature and light-controlled laboratory animal care unit (22±2° C., 12-h light/dark cycle, lights on at 6:00 AM) with ad libitum access to commercial pellet rat food and tap water. Investigations were approved by the Local Ethical Committee of Gedeon Richter Plc. and were carried out in strict compliance with the European Directive 2010/63/EU regarding the care and use of laboratory animals for experimental procedures and all efforts were made to minimize the number of animals as well as their suffering. In order to evoke emission of ultrasounds, animals were footshocked after a habituation period of 30 s (6 shocks, 1 s, 0.8 mA each, inter-shock interval 10 s) in a sound attenuated shocking chamber (Experimetria, 40×40×80 cm). […] Vocalizations were measured right after the last footshock for 10 min with a Metris Sonotrack system and the total time of vocalizations was registered. Vocalization of parallel vehicle treated animals was considered as control value and inhibition percent was calculated for each compound. At approximately 75 min after treatment and behavioral measurements, blood and brain samples were harvested in order to determine exposures associated with in vivo activity.

Data set [2] can be described thus: Plasma and brain exposure after USV measurement. The format is in vivo. To be noted: rat, per os, about 75 min after treatment. How it is done: as §1
The target of data set [3] is T1, GABAB receptor (Rattus norvegicus, UniProt O88871+Q9Z0U4).
T1 construct: from tissue; host or cells: rat brain cortex membranes
In words: In vitro [35S]GTPγS binding assay in rat cortical membranes. To be noted: [35S]GTPγS binding, rat cortical membranes; read-out: In vitro PAM potency (PAM EC50). Type of data set: biochemical. How it is done:
In Vitro [^35S]GTPγS Binding Assay in Rat Cortical Membranes
Cortices of freshly harvested rat brains were dissected on an ice-cold surface and homogenized by a glass Dounce homogeniser immediately in ice-cold buffer containing 50 mM Tris, 5 mM MgCl2 and 1 mM EDTA (pH=7.6). Tissue homogenates were centrifuged at 40000 g for 15 min at 4° C. Membrane pellets were resuspended in the same buffer and membranes were incubated for 10 min at 30° C. in a shaking water bath to eliminate endogenous GABA. Homogenates were centrifuged again under the same conditions. The final pellets were resuspended in ice-cold buffer (pH=7.6) containing 50 mM Tris, 100 mM NaCl, 7 mM MgCl2, 1 mM EDTA and 1 mM dithiotreithol (DTT) to yield a concentration of 20 mg tissue weight/ml and frozen at −70° C. until use. The assay was done in a buffer containing 50 mM Tris (pH=7.4), 100 mM NaCl, 7 mM MgCl2, 1 mM EDTA and 1 mM DTT. Each assay tube contained 150 μL GDP (in a final concentration of 50 μM), 100 μL ligand and 125 μL of the membrane suspension (250 μg tissue/tube). The assay tubes were preincubated for 10 min at 30° C. to assure equilibrium. Nonspecific binding was determined in the presence of 10 μM GTPγS; basal binding was determined in the presence of buffer only. After addition of […] [^35S]GTPγS in a volume of 25 μL to the tubes, membranes were incubated for an additional 60 min at 30° C. The assay was terminated by rapid filtration through Packard UniFilter GF/B using a Packard harvester and washed four times with 1 ml ice-cold buffer. After drying the filters at 40° C. for 1 h, 40 μL Microscint (Packard) was added to the filters and radioactivity of the filters was determined by a TopCount NXT (PerkinElmer, Waltham, Mass.; Alper and Nelson, Eur. J. Pharmacol. 1998, 343, 303-312; Rinken et al, Biochem. Pharmacol. 1999, 57, 155-162). Data thus gathered were used to determine PAM EC50 values for each compound as primary in vitro activity end point.
A general note: GTPγS is a poorly hydrolysed GTP analogue; its binding reports G protein activation.

T1 sequence (O88871 41-940): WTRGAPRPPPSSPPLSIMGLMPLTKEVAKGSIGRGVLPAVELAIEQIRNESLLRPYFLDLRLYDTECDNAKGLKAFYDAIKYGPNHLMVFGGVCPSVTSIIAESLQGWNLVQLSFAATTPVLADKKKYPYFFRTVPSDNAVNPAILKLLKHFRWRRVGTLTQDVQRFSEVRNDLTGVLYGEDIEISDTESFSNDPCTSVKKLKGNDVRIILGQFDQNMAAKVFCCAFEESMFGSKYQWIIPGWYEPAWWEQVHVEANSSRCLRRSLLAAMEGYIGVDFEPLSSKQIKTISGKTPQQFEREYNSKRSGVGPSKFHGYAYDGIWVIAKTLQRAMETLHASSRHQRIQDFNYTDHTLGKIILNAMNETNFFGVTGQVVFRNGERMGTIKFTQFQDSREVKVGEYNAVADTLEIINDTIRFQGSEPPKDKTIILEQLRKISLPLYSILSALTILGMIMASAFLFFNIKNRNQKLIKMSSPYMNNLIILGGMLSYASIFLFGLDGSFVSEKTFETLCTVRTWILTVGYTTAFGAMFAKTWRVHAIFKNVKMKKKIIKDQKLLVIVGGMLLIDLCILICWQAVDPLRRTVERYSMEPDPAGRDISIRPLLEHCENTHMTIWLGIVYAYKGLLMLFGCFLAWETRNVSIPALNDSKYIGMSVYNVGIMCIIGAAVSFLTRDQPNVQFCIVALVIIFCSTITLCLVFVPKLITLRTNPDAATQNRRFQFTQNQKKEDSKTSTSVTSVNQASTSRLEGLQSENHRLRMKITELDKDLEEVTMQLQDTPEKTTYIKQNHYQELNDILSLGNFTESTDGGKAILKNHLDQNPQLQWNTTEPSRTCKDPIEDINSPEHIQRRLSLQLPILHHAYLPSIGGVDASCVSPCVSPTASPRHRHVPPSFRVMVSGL
T1 sequence (Q9Z0U4 17-960 limits assumed): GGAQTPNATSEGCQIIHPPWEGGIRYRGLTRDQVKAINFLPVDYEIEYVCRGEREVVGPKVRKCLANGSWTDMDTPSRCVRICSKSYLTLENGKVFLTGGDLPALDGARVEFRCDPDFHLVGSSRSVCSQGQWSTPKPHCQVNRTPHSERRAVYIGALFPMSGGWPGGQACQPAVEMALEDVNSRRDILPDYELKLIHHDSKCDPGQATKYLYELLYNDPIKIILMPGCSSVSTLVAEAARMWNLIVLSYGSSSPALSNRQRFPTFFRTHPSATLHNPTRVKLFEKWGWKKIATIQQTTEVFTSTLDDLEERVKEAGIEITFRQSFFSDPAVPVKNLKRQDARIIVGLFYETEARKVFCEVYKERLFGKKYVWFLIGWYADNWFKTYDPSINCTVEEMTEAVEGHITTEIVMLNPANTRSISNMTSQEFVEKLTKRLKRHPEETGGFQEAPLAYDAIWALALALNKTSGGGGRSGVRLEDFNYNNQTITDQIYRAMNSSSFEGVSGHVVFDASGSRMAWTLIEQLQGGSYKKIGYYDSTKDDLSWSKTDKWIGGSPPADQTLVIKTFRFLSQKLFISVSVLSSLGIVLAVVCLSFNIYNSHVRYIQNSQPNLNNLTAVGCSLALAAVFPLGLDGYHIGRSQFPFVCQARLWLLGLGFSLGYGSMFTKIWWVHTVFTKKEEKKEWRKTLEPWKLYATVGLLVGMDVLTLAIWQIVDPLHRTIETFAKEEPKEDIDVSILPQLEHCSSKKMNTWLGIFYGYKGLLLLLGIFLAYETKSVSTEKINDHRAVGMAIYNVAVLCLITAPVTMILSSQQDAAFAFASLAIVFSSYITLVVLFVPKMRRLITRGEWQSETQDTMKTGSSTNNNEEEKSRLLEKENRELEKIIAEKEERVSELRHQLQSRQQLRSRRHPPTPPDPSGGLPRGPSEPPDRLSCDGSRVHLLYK

`Cc1nc2cc(-c3ccc(Cl)cc3)nn2c(N2CCCC(C(=O)O)(C(C)C)C2)c1C(C)C` (stereo not shown) [Example 3, 1-[2-(4-Chlorophenyl)-5-methyl-6-(propan-2-yl)pyrazolo[1,5-a]pyrimidin-7-yl]-3-(propan-2-yl)piperidine-3-carboxylic acid]: the inhibition in vivo at 10 mg/kg in data set [1] was 58%. In data set [2] (formulation Tween), the “Brain exposure at 1 mg/kg” value turned out to be 395 ng/g and the “Plasma exposure at 1 mg/kg” value was 358 ng/mL. In addition, the EC50 in data set [3] lay in the range of 10 to 100 nM.

In data set [1], `CC[C@]1(C(=O)O)CCCN(c2c(C(C)C)c(C)nc3cc(-c4ccc(Cl)cc4)nn23)C1` [Example 5, (3S)-1-[2-(4-Chlorophenyl)-5-methyl-6-(propan-2-yl)pyrazolo[1,5-a]pyrimidin-7-yl]-3-ethylpiperidine-3-carboxylic acid] gave an inhibition in vivo at 10 mg/kg of 37%. In data set [2] (formulation SpD1), the “Brain exposure at 1 mg/kg” value is recorded as 857 ng/g and the “Plasma exposure at 1 mg/kg” value worked out at 1472 ng/mL. In data set [3], the EC50 was in the range of 10 to 100 nM.

In data set [1], `CC[C@]1(C(=O)O)CCCN(c2c(C(C)C)c(C)nc3cc(-c4ccc(C(F)(F)F)cc4)nn23)C1` [Example 6, (3S)-3-Ethyl-1-[5-methyl-6-(propan-2-yl)-2-[4-(trifluoromethyl)phenyl]pyrazolo[1,5-a]pyrimidin-7-yl]piperidine-3-carboxylic acid] showed an inhibition in vivo at 10 mg/kg of 90%. In data set [2] (formulation Tween), the “Brain exposure at 1 mg/kg” value was determined as 1326 ng/g and the “Plasma exposure at 1 mg/kg” value is recorded as 1453 ng/mL. Further, the EC50 in data set [3] was in the range of 10 to 100 nM.

With `CC[C@]1(C(=O)O)CCCN(c2c(C(C)C)c(C)nc3cc(-c4ccc(C(F)(F)F)cc4F)nn23)C1` [Example 7, (3S)-3-Ethyl-1-{2-[2-fluoro-4-(trifluoromethyl)phenyl]-5-methyl-6-(propan-2-yl)pyrazolo[1,5-a]pyrimidin-7-yl}piperidine-3-carboxylic acid], the inhibition in vivo at 10 mg/kg in data set [1] was 90%. In addition, in data set [2] (formulation Tween), the “Brain exposure at 1 mg/kg” value is 332 ng/g and the “Plasma exposure at 1 mg/kg” value was determined as 506 ng/mL. The EC50 in data set [3] lay in the range of 1 to 10 nM.

For `CC[C@@]1(C(=O)O)CCCN(c2c(C(C)C)c(C)nc3cc(-c4ccc(C(F)(F)F)cc4F)nn23)C1` [Example 8, (3R)-3-Ethyl-1-{2-[2-fluoro-4-(trifluoromethyl)phenyl]-5-methyl-6-(propan-2-yl)pyrazolo[1,5-a]pyrimidin-7-yl}piperidine-3-carboxylic acid], testing at 10 mg/kg in data set [1] gave an inhibition in vivo of 60%. Moreover, in data set [2] (formulation Tween), the “Brain exposure at 1 mg/kg” value is listed as 1193 ng/g and the “Plasma exposure at 1 mg/kg” value stood at 298 ng/mL.

In data set [1], `Cc1nc2cc(-c3ccc(Cl)cc3)nn2c(N2CCC[C@](C(=O)O)(C(C)C)C2)c1C(C)C` [Example 9, (3S)-1-[2-(4-Chlorophenyl)-5-methyl-6-(propan-2-yl)pyrazolo[1,5-a]pyrimidin-7-yl]-3-(propan-2-yl)piperidine-3-carboxylic acid] yielded an inhibition in vivo at 10 mg/kg of 39%. In data set [2] (formulation SpD1), the “Brain exposure at 1 mg/kg” value turned out to be 1849 ng/g and the “Plasma exposure at 1 mg/kg” value came to 1807 ng/mL. For the same compound, the EC50 in data set [3] is 10 to 100 nM.

Turning to `Cc1nc2cc(-c3ccc(C(F)(F)F)cc3)nn2c(N2CCC[C@](C(=O)O)(C(C)C)C2)c1C(C)C` [Example 10, (3S)-1-[5-Methyl-6-(propan-2-yl)-2-[4-(trifluoromethyl)phenyl]pyrazolo[1,5-a]pyrimidin-7-yl]-3-(propan-2-yl)piperidine-3-carboxylic acid], the inhibition in vivo at 10 mg/kg in data set [1] worked out at 30%. Moreover, in data set [2] (formulation Tween), the “Brain exposure at 1 mg/kg” value is 150 ng/g and the “Plasma exposure at 1 mg/kg” value stood at 36 ng/mL. Further, the EC50 in data set [3] was 1 to 10 nM.

Compound `Cc1nc2cc(-c3ccc(C(F)(F)F)cc3F)nn2c(N2CCC[C@@](C(=O)O)(C(C)C)C2)c1C(C)C` [Example 11, (3R)-1-{2-[2-Fluoro-4-(trifluoromethyl)phenyl]-5-methyl-6-(propan-2-yl)pyrazolo[1,5-a]pyrimidin-7-yl}-3-(propan-2-yl)piperidine-3-carboxylic acid] returned an inhibition in vivo at 10 mg/kg in data set [1] of 15%. In addition, in data set [2] (formulation Tween), the “Brain exposure at 1 mg/kg” value is recorded as 165 ng/g and the “Plasma exposure at 1 mg/kg” value is reported as 326 ng/mL. Besides, the EC50 in data set [3] is 1 to 10 nM.

In data set [1], `Cc1nc2cc(-c3ccc(C(F)(F)F)cc3)nn2c(N2CCC[C@](C)(C(=O)O)C2)c1C(C)C` [Example 12, (3S)-3-Methyl-1-[5-methyl-6-(propan-2-yl)-2-[4-(trifluoromethyl)phenyl]pyrazolo[1,5-a]pyrimidin-7-yl]piperidine-3-carboxylic acid] registered an inhibition in vivo at 10 mg/kg of 63%. Besides, in data set [2] (formulation Tween), the “Brain exposure at 1 mg/kg” value worked out at 218 ng/g and the “Plasma exposure at 1 mg/kg” value is reported as 283 ng/mL. Also, in data set [3], the EC50 fell in the range of 1 to 10 nM.

In the case of `Cc1nc2cc(-c3ccc(C(F)(F)F)cc3Cl)nn2c(N2CCC[C@](C)(C(=O)O)C2)c1C(C)C` [Example 13, (3S)-1-{2-[2-Chloro-4-(trifluoromethyl)phenyl]-5-methyl-6-(propan-2-yl)pyrazolo[1,5-a]pyrimidin-7-yl}-3-methylpiperidine-3-carboxylic acid], in data set [1], the inhibition in vivo at 10 mg/kg came to 90%. Also, in data set [2] (formulation Tween), the “Brain exposure at 1 mg/kg” value is listed as 424 ng/g and the “Plasma exposure at 1 mg/kg” value was 843 ng/mL. Besides, the EC50 in data set [3] lay within 1 to 10 nM.

In data set [1], `CC[C@]1(C(=O)O)CCCN(c2c(C(C)C)c(C)nc3cc(-c4ccc(C(F)(F)F)c(F)c4)nn23)C1` [Example 14, (3S)-3-Ethyl-1-{2-[3-fluoro-4-(trifluoromethyl)phenyl]-5-methyl-6-(propan-2-yl)pyrazolo[1,5-ala]pyrimidin-7-yl}piperidine-3-carboxylic acid] came in with an inhibition in vivo at 10 mg/kg of 47%. In addition, in data set [2] (formulation SpD1), the “Brain exposure at 1 mg/kg” value is given as 1962 ng/g and the “Plasma exposure at 1 mg/kg” value worked out at 2323 ng/mL. Further, the EC50 in data set [3] is 10 to 100 nM.

In turn, `CC[C@]1(C(=O)O)CCCN(c2c(C(C)C)c(C)nc3c(F)c(-c4ccc(C(F)(F)F)cc4)nn23)C1` [Example 15, (3S)-3-Ethyl-1-[3-fluoro-5-methyl-6-(propan-2-yl)-2-[4-(trifluoromethyl)phenyl]pyrazolo[1,5-a]pyrimidin-7-yl]piperidine-3-carboxylic acid] had an inhibition in vivo at 10 mg/kg in data set [1] of 85%. In addition, in data set [2] (formulation SpD1), the “Brain exposure at 1 mg/kg” value came out at 1377 ng/g and the “Plasma exposure at 1 mg/kg” value is 1317 ng/mL. In data set [3], the EC50 lay within 1 to 10 nM.

Take `CCC1(C(=O)O)CCCN(c2c(C(C)C)c(C)nc3cc(-c4ccc(Cl)cc4)nn23)C1` (stereo not shown) [Example 20]: in data set [2] (formulation SpD1), the “Brain exposure at 1 mg/kg” value was 1093 ng/g and the “Plasma exposure at 1 mg/kg” value amounted to 1275 ng/mL. Moreover, the EC50 in data set [3] lay in the range of 10 to 100 nM.

On to `CC[C@@]1(C(=O)O)CCCN(c2c(C(C)C)c(C)nc3cc(-c4ccc(Cl)cc4)nn23)C1` [Example 21], for which the EC50 in data set [3] was 10 to 100 nM.

Regarding `Cc1nc2cc(-c3ccc(Cl)cc3)nn2c(N2CCC[C@@](C(=O)O)(C(C)C)C2)c1C(C)C` [Example 22], in data set [3], the EC50 fell in the range of 10 to 100 nM.

With `Cc1nc2cc(-c3ccc(Cl)cc3Cl)nn2c(N2CCC[C@](C(=O)O)(C(C)C)C2)c1C(C)C` [Example 45], the EC50 in data set [3] is 10 to 100 nM.

Regarding `Cc1nc2cc(-c3ccc(C(F)(F)F)c(F)c3)nn2c(N2CCC[C@@](C(=O)O)(C(C)C)C2)c1C(C)C` [Example 58], in data set [3], the EC50 lay within 10 to 100 nM.

`Cc1nc2c(F)c(-c3ccc(Cl)cc3)nn2c(N2CCCC(C(=O)O)C2)c1C(C)C` (stereo not shown) [Example 70] showed an inhibition in vivo at 10 mg/kg in data set [1] of 71%.

By inhibition in vivo is commonly meant the drop in the measured response relative to a control, in per cent. A higher inhibition in vivo goes with strong suppression. Usually EC50 stands for the midpoint of the concentration-response curve.
